Results as given in PubChem BioAssay (NCI).
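Step 1: Grow cells in 96-well plates. Step 2: Expose to compound for 48 hours at 5 concentrations. Step 3: Interpolate endpoints linearly; if unreached, use highest concentration. Here, GI50 denotes the concentration required for 50% inhibition of growth. TGI: concentration producing complete growth inhibition.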

Legend:
Assay in all cases: NCI tumour cell line growth inhibition, 48 h; in the data active = GI50 below about 0.43 µM; inactive = the rest
BT-549 breast = system: BT-549 breast
UACC-257 melanoma = system: UACC-257 melanoma
MDA-MB-231 breast = system: MDA-MB-231 breast
HCT-15 colon = system: HCT-15 colon
MOLT-4 leukemia = system: MOLT-4 leukemia
HCC-2998 colon = system: HCC-2998 colon
HCT-116 colon = system: HCT-116 colon
SF-295 CNS = system: SF-295 CNS
SN12C renal = system: SN12C renal
NCI-H460 lung = system: NCI-H460 lung
SF-268 CNS = system: SF-268 CNS
OVCAR-4 ovarian = system: OVCAR-4 ovarian
HOP-92 NSCLC = system: HOP-92 NSCLC
MDA-MB-435 = system: MDA-MB-435
OVCAR-5 ovarian = system: OVCAR-5 ovarian
SNB-19 CNS = system: SNB-19 CNS
K-562 leukemia = system: K-562 leukemia
HOP-62 NSCLC = system: HOP-62 NSCLC
OVCAR-3 ovarian = system: OVCAR-3 ovarian
SW-620 colon = system: SW-620 colon
RPMI-8226 leukemia = system: RPMI-8226 leukemia
SK-MEL-5 melanoma = system: SK-MEL-5 melanoma
RXF 393 renal = system: RXF 393 renal
MCF7 breast = system: MCF7 breast
M14 melanoma = system: M14 melanoma
DU-145 prostate = system: DU-145 prostate
T-47D breast = system: T-47D breast
A549 NSCLC = system: A549 NSCLC
U251 CNS = system: U251 CNS
NCI-H226 lung = system: NCI-H226 lung
KM12 colon = system: KM12 colon
TK-10 renal = system: TK-10 renal
IGROV1 ovarian = system: IGROV1 ovarian
CAKI-1 renal = system: CAKI-1 renal
SK-MEL-2 melanoma = system: SK-MEL-2 melanoma
SF-539 CNS = system: SF-539 CNS
OVCAR-8 ovarian = system: OVCAR-8 ovarian
SK-OV-3 ovarian = system: SK-OV-3 ovarian
EKVX NSCLC = system: EKVX NSCLC
UO-31 renal = system: UO-31 renal
786-0 renal = system: 786-0 renal
MDA-N = system: MDA-N
HS 578T breast = system: HS 578T breast
SNB-75 CNS = system: SNB-75 CNS
SK-MEL-28 melanoma = system: SK-MEL-28 melanoma
UACC-62 melanoma = system: UACC-62 melanoma
NCI-H522 lung = system: NCI-H522 lung
HT29 colon = system: HT29 colon
PC-3 prostate = system: PC-3 prostate
A498 renal = system: A498 renal
NCI-H23 lung = system: NCI-H23 lung
ACHN renal = system: ACHN renal
MALME-3M melanoma = system: MALME-3M melanoma
LOX IMVI melanoma = system: LOX IMVI melanoma
HL-60(TB) leukemia = system: HL-60(TB) leukemia
NCI/ADR-RES ovarian = system: NCI/ADR-RES ovarian
CCRF-CEM leukemia = system: CCRF-CEM leukemia
COLO 205 colon = system: COLO 205 colon
SR leukemia = system: SR leukemia

C=CCCCC1CCCNC1=S (stereo not drawn)
> 100 µM: TGI (BT-549 breast) | TGI (UACC-257 melanoma) | TGI (MDA-MB-231 breast) | TGI (HCT-15 colon) | TGI (MOLT-4 leukemia) | TGI (HCC-2998 colon) | TGI (HCT-116 colon) | TGI (SF-295 CNS) | TGI (SN12C renal) | TGI (NCI-H460 lung) | TGI (SF-268 CNS) | TGI (OVCAR-4 ovarian) | TGI (HOP-92 NSCLC) | TGI (MDA-MB-435) | TGI (OVCAR-5 ovarian) | TGI (SNB-19 CNS) | TGI (K-562 leukemia) | TGI (HOP-62 NSCLC) | TGI (OVCAR-3 ovarian) | TGI (SW-620 colon) | TGI (RPMI-8226 leukemia) | TGI (SK-MEL-5 melanoma) | TGI (RXF 393 renal) | TGI (MCF7 breast) | TGI (M14 melanoma) | TGI (DU-145 prostate) | TGI (T-47D breast) | TGI (A549 NSCLC) | TGI (U251 CNS) | TGI (NCI-H226 lung) | TGI (KM12 colon) | TGI (TK-10 renal) | TGI (IGROV1 ovarian) | TGI (CAKI-1 renal) | TGI (SK-MEL-2 melanoma) | TGI (SF-539 CNS) | TGI (OVCAR-8 ovarian) | TGI (SK-OV-3 ovarian) | TGI (EKVX NSCLC) | TGI (UO-31 renal) | TGI (786-0 renal) | TGI (MDA-N) | TGI (HS 578T breast) | TGI (SNB-75 CNS) | TGI (SK-MEL-28 melanoma) | TGI (UACC-62 melanoma) | TGI (NCI-H522 lung) | TGI (HT29 colon) | TGI (PC-3 prostate) | TGI (A498 renal) | TGI (NCI-H23 lung) | TGI (ACHN renal)

Nc1ccc(-c2ccc(N)cc2I)c(I)c1
34.4 µM: TGI (M14 melanoma)
53.8 µM: TGI (UACC-257 melanoma)
39.4 µM: TGI (HOP-62 NSCLC)
> 100 µM: TGI (SF-268 CNS) | TGI (OVCAR-4 ovarian) | TGI (A549 NSCLC)
80.7 µM: TGI (TK-10 renal)
inactive: GI50 (BT-549 breast) 13.8 µM | GI50 (UACC-257 melanoma) 21.5 µM | GI50 (MDA-MB-231 breast) 16.6 µM | GI50 (HCT-15 colon) 13.7 µM | GI50 (MOLT-4 leukemia) 9.89 µM | GI50 (HCC-2998 colon) 19.1 µM | GI50 (MALME-3M melanoma) 11.9 µM | GI50 (HCT-116 colon) 15.2 µM | GI50 (SF-295 CNS) 15.5 µM | GI50 (SN12C renal) 19.7 µM | GI50 (NCI-H460 lung) 19.4 µM | GI50 (SF-268 CNS) 20 µM | GI50 (LOX IMVI melanoma) 16.3 µM | GI50 (OVCAR-4 ovarian) 17.5 µM | GI50 (HOP-92 NSCLC) 11.2 µM | GI50 (MDA-MB-435) 3.72 µM | GI50 (OVCAR-5 ovarian) 17.5 µM | GI50 (SNB-19 CNS) 19 µM | GI50 (K-562 leukemia) 5.89 µM | GI50 (HOP-62 NSCLC) 17.5 µM | GI50 (OVCAR-3 ovarian) 16.6 µM | GI50 (SW-620 colon) 19.4 µM | GI50 (RPMI-8226 leukemia) 14 µM | GI50 (SK-MEL-5 melanoma) 13.9 µM | GI50 (RXF 393 renal) 10.9 µM | GI50 (HL-60(TB) leukemia) 18.4 µM | GI50 (MCF7 breast) 18.4 µM | GI50 (M14 melanoma) 12.2 µM | GI50 (DU-145 prostate) 21.8 µM | GI50 (T-47D breast) 18.5 µM | GI50 (A549 NSCLC) 29.9 µM | GI50 (NCI/ADR-RES ovarian) 19 µM | GI50 (U251 CNS) 16.3 µM | GI50 (NCI-H226 lung) 17.2 µM | GI50 (KM12 colon) 14.5 µM | GI50 (TK-10 renal) 22.8 µM | GI50 (IGROV1 ovarian) 13.9 µM | GI50 (CAKI-1 renal) 14.5 µM | GI50 (SK-MEL-2 melanoma) 15.9 µM | GI50 (SF-539 CNS) 14.5 µM | GI50 (OVCAR-8 ovarian) 27.1 µM | GI50 (SK-OV-3 ovarian) 17 µM | GI50 (EKVX NSCLC) 19.1 µM | GI50 (UO-31 renal) 10.6 µM | GI50 (786-0 renal) 17.3 µM | GI50 (HS 578T breast) 17.1 µM | GI50 (SNB-75 CNS) 10.8 µM | GI50 (SK-MEL-28 melanoma) 14.1 µM | GI50 (CCRF-CEM leukemia) 8.14 µM | GI50 (UACC-62 melanoma) 12.1 µM | GI50 (COLO 205 colon) 17 µM | GI50 (NCI-H522 lung) 16.4 µM | GI50 (HT29 colon) 20 µM | GI50 (SR leukemia) 5.1 µM | GI50 (PC-3 prostate) 16.3 µM | GI50 (A498 renal) 10.7 µM | GI50 (NCI-H23 lung) 17.8 µM | GI50 (ACHN renal) 22.6 µM
36.5 µM: TGI (KM12 colon)
28 µM: TGI (RXF 393 renal)
45.4 µM: TGI (NCI-H226 lung)
39.3 µM: TGI (NCI-H460 lung)
35.6 µM: TGI (U251 CNS)
73.8 µM: TGI (SNB-75 CNS)
56.1 µM: TGI (IGROV1 ovarian)
32 µM: TGI (HCT-116 colon)
16.2 µM: TGI (MDA-MB-435)
24.1 µM: TGI (A498 renal)
37 µM: TGI (HOP-92 NSCLC)
77.3 µM: TGI (SNB-19 CNS)
59.9 µM: TGI (DU-145 prostate)
32.2 µM: TGI (SF-539 CNS)
34.1 µM: TGI (HCT-15 colon)
36.7 µM: TGI (MALME-3M melanoma) | TGI (NCI-H522 lung)
47.6 µM: TGI (HL-60(TB) leukemia) | TGI (PC-3 prostate)
81.7 µM: TGI (SW-620 colon)
42.9 µM: TGI (CAKI-1 renal)
35.3 µM: TGI (OVCAR-3 ovarian)
36.9 µM: TGI (786-0 renal)
38.1 µM: TGI (COLO 205 colon)
43.1 µM: TGI (NCI-H23 lung)
31.2 µM: TGI (LOX IMVI melanoma)
33.9 µM: TGI (SF-295 CNS)
26 µM: TGI (UO-31 renal)
42.2 µM: TGI (HCC-2998 colon)
39.1 µM: TGI (K-562 leukemia)
44.4 µM: TGI (SK-OV-3 ovarian)
54.8 µM: TGI (OVCAR-5 ovarian)
38.6 µM: TGI (SK-MEL-28 melanoma)
88.3 µM: TGI (HS 578T breast)
33.2 µM: TGI (UACC-62 melanoma)
55.8 µM: TGI (SN12C renal)
46.4 µM: TGI (MDA-MB-231 breast)
70.1 µM: TGI (EKVX NSCLC)
89.6 µM: TGI (ACHN renal)
39.8 µM: TGI (SR leukemia)
37.7 µM: TGI (RPMI-8226 leukemia)
58.1 µM: TGI (MCF7 breast)
36.1 µM: TGI (BT-549 breast)
43.6 µM: TGI (MOLT-4 leukemia)
70 µM: TGI (NCI/ADR-RES ovarian)
59.1 µM: TGI (T-47D breast)
43.3 µM: TGI (CCRF-CEM leukemia)
27.2 µM: TGI (SK-MEL-5 melanoma)
94.7 µM: TGI (OVCAR-8 ovarian)
37.4 µM: TGI (SK-MEL-2 melanoma)
42.8 µM: TGI (HT29 colon)
